Reference: US11684614B2, “Formulations of hydroxypyridonate actinide/lanthanide decorporation agents” (priority 2017, dated 2023)
Where “and” joins values, the source holds several entries; their conditions need not be identical. Equal values may be shown once.

What was measured:
[1] = Distribution coefficient measurement; format: physicochemical; details: for Dow / Log(Dow): listed as 3,4,3-LI(1,2-HOPO)
[2] = Non-GLP 7-day repeat dose beagle dog study, safety findings (SRI No. B677-13); format: in vivo, beagle dogs
Text: Clinical observations that were associated with test article administration included post-dose diarrhea and emesis. Specifically, dogs in the mid- and high-dose groups experienced slight or extreme diarrhea on Day 1 between 1 and 6 hr post-dose. Diarrhea was absent from the lowdose group. […] By Day 2, 8 of the 9 affected dogs were normal, with the exception of one highdose group female that had continued slight diarrhea. Slight to moderate emesis occurred <2 hr post-dose (and oftentimes <1 hr post-dose) in 1-3 dogs from each of the 3,4,3-L1(1,2-HOPO) treatment groups and in none of the vehicle control-treated dogs. Post-dose emesis appeared to be dose-dependent since it occurred in 0, 1, 2, and 3 dogs out of 12 dogs per group in control, low, mid, and high dose groups, respectively. Post-dose emesis is a common response to oral dose administration in dogs, and a single occurrence of it in the low dose group could be […] rather than test article-related and is not considered a dose-limiting event. Slight post-dose emesis in this one male dog was the only finding present in the 37.5 mg/kg lowdose treatment group.
No similar renal histopathology findings were found in any of the other on-study dogs. The observation of hemosiderin without fibrosis in the kidney sections from this one dog is consistent with the renal findings having developed within one to three days prior to the Day 15 necropsy. This dog also had corresponding small increases (1.8- and 1.3-fold, respectively) in the renal function markers BUN and CR on Day 15 relative to pre-test. The timing of the renal findings in this recovery group dog is surprising given the fact that 3,4,3-L1(1,2-HOPO) was administered only on Day 1. Therefore, it is unclear if these renal findings are related specifically to high-dose administration of 3,4,3-L1(1,2-HOPO). There were no toxicologically meaningful histopathology findings in any of the dogs on Day 2 or in any of the other dogs on Day 15. Similar renal findings were also absent from the non-GLP 7-day repeat dose dog study (SRI No. B677-13) where 2 dogs/sex received formulated material at higher doses for 4 days followed by equivalent doses for 3 days and then were sacrificed on Day 8.
An evaluation of the serum levels of iron, unsaturated iron binding capacity, total iron binding capacity, magnesium, and ferritin were included in the clinical pathology analysis during the dog safety studies because 3,4,3-L1(1,2-HOPO) is a potent metal chelator.

[3] = Buffering Agent 1: 7.5 E−02 M HCl, pH 1.18, samples A11-A13
[4] = Buffering Agent 1: 7.5 E−02 M HCl, pH 1.20, samples B11-B13
[5] = Buffering Agent 2: 7.5 E−03 M HCl, pH 2.15, samples A11-A13
[6] = Buffering Agent 2: 7.5 E−03 M HCl, pH 2.16, samples B11-B13
[7] = Buffering Agent 3: 7.5 E−04 M HCl, pH 3.21, samples A31-A33
[8] = Buffering Agent 4: 1 E−02 M Acetic Acid, pH 4.19, samples A41-A43
[9] = Buffering Agent 5: 1 E−02 M Acetic Acid, pH 5.13, samples A51-A53
[10] = Buffering Agent 5: 1 E−02 M Acetic Acid, pH 5.20, samples B51-B53
[11] = Buffering Agent 6: 1 E−02 M MES, pH 6.30, samples A61-A63
[12] = Buffering Agent 7: 1 E−02 M HEPES, pH 6.75, samples A71-A73
[13] = Buffering Agent 8: 1 E−02 M HEPES, pH 7.42, samples A81-A83
[14] = Buffering Agent 9: 1 E−02 M HEPES, pH 8.00, samples A91-A93
[15] = after treatment, 2 dogs/sex, no control group

Structure (SMILES): O=C(NCCCN(CCCCN(CCCNC(=O)c1cccc(=O)n1O)C(=O)c1cccc(=O)n1O)C(=O)c1cccc(=O)n1O)c1cccc(=O)n1O [3,4,3-L1(1,2-HOPO)]
- Dow [1, 3]: 0.122 and 0.115 and 0.112
- Log(Dow) [1, 3]: −0.915 and −0.938 and −0.952
- Log(Dow), unlabelled summary row (mean of samples) ([1]; Buffering Agent 1: 7.5 E−02 M HCl, pH 1.18, series A): −0.935
- Dow [1, 4]: 0.318 and 0.327 and 0.285
- Log(Dow) [1, 4]: −0.497 and −0.485 and −0.545
- Log(Dow), unlabelled summary row (mean of samples) ([1]; Buffering Agent 1: 7.5 E−02 M HCl, pH 1.20, series B): −0.509
- Dow [1, 5]: 0.093 and 0.105 and 0.110
- Log(Dow) [1, 5]: −1.031 and −0.980 and −0.958
- Log(Dow), unlabelled summary row (mean of samples) ([1]; Buffering Agent 2: 7.5 E−03 M HCl, pH 2.15, series A): −0.990
- Dow [1, 6]: 0.503 and 0.491 and 0.469
- Log(Dow) [1, 6]: −0.299 and −0.309 and −0.329
- Log(Dow), unlabelled summary row (mean of samples) ([1]; Buffering Agent 2: 7.5 E−03 M HCl, pH 2.16, series B): −0.312
- Log(Dow), unlabelled summary row (mean of samples) ([1]; Buffering Agent 3: 7.5 E−04 M HCl, pH 3.13, series B): −1.499
- Dow [1, 7]: 0.180 and 0.170 and 0.184
- Log(Dow) [1, 7]: −0.744 and −0.769 and −0.735
- Log(Dow), unlabelled summary row (mean of samples) ([1]; Buffering Agent 3: 7.5 E−04 M HCl, pH 3.21, series A): −0.750
- Log(Dow), unlabelled summary row (mean of samples) ([1]; Buffering Agent 4: 1 E−02 M Acetic Acid, pH 4.00, series B): −1.566
- Dow [1, 8]: 0.076 and 0.061 and 0.068
- Log(Dow) [1, 8]: −1.119 and −1.218 and −1.166
- Log(Dow), unlabelled summary row (mean of samples) ([1]; Buffering Agent 4: 1 E−02 M Acetic Acid, pH 4.19, series A): −1.168
- Dow [1, 9]: 0.044 and 0.027 and 0.050
- Log(Dow) [1, 9]: −1.360 and −1.564 and −1.299
- Log(Dow), unlabelled summary row (mean of samples) ([1]; Buffering Agent 5: 1 E−02 M Acetic Acid, pH 5.13, series A): −1.408
- Dow [1, 10]: 0.056 and 0.082 and 0.103
- Log(Dow) [1, 10]: −1.251 and −1.086 and −0.989
- Log(Dow), unlabelled summary row (mean of samples) ([1]; Buffering Agent 5: 1 E−02 M Acetic Acid, pH 5.20, series B): −1.109
- Log(Dow) ([1]; Buffering Agent 6: 1 E−02 M MES, pH 6.15, samples B61-B63): −1.374 and −1.645
- Log(Dow), unlabelled summary row (mean of samples) ([1]; Buffering Agent 6: 1 E−02 M MES, pH 6.15, series B (B61 prints #NUM!)): −1.510
- Dow [1, 11]: 0.064 and 0.077 and 0.082
- Log(Dow) [1, 11]: −1.191 and −1.113 and −1.086
- Log(Dow), unlabelled summary row (mean of samples) ([1]; Buffering Agent 6: 1 E−02 M MES, pH 6.30, series A): −1.130
- Dow [1, 12]: 0.150 and 0.120 and 0.105
- Log(Dow) [1, 12]: −0.824 and −0.921 and −0.977
- Log(Dow), unlabelled summary row (mean of samples) ([1]; Buffering Agent 7: 1 E−02 M HEPES, pH 6.75, series A): −0.908
- Log(Dow), unlabelled summary row (mean of samples) ([1]; Buffering Agent 7: 1 E−02 M HEPES, pH 6.83, series B): −1.680
- Dow [1, 13]: 0.130 and 0.132 and 0.107
- Log(Dow) [1, 13]: −0.885 and −0.879 and −0.970
- Log(Dow), unlabelled summary row (mean of samples) ([1]; Buffering Agent 8: 1 E−02 M HEPES, pH 7.42, series A): −0.912
- Log(Dow), unlabelled summary row (mean of samples) ([1]; Buffering Agent 8: 1 E−02 M HEPES, pH 7.46, series B): −1.173
- Dow [1, 14]: 0.110 and 0.074 and 0.132
- Log(Dow) [1, 14]: −0.957 and −1.128 and −0.879
- Log(Dow), unlabelled summary row (mean of samples) ([1]; Buffering Agent 9: 1 E−02 M HEPES, pH 8.00, series A): −0.988
- Log(Dow), unlabelled summary row (mean of samples) ([1]; Buffering Agent 9: 1 E−02 M HEPES, pH 8.00, series B): −1.920
- renal findings ([2]; 7-day repeat dose, sacrificed on Day 8): absent
- decrease in unsaturated iron binding capacity [2, 15]: 16-62%
- increase in serum total iron levels compared with pretest [2, 15]: ~2 fold
- emesis and diarrhea ([2]; formulated capsules once daily for 7 days, 75.1, 150, or 300 mg/kg, ~1 hr post-dose): dose dependent, transient emesis and diarrhea
